These results are taken from patent US8530465B2, “1, 2-disubstituted amido-anthraquinone derivatives, preparation method and application thereof” (National Defense Medical Center, priority 2010, dated 2013).

One data set relates to hTERT. As to the kind of experiment: Secreted alkaline phosphatase (SEAP) assay, PhTERT-SEAP (H1299). The data set is classed as cell-based. Conditions: Homo sapiens, 24 hours; for activity at 1 µM: NCI-H1299, Conc. 1 μM, read-out: Relative SEAP activity (%); for activity at 10 µM: NCI-H1299, Conc. 10 μM; for activity at 10 µM / activity at 100 µM: read-out: Relative SEAP activity (%) (converted); for activity at 100 µM: NCI-H1299, Conc. 100 μM. The procedure, abridged: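 Stable H1299 clone carrying the −3338 to +1 bp hTERT promoter upstream of SEAP; ~10^4 cells/well treated with varying drug amounts for 24 h at 37° C. Media heat-treated 65° C. 10 min, mixed with diethanolamine/MgCl2/L-homoarginine buffer and 12 mM p-nitrophenyl phosphate final; SEAP activity taken as rate of A405 increase.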

The next data set deals with H1299. As to the kind of experiment: MTT assay, PhTERT-SEAP (H1299). The data set is classed as cell-based, human. To be noted: H1299; for cell toxicity activity: low concentration (1 μM). The procedure, abridged:
(§1)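 Cultured cells received MTT for 4 h at 37 °C, then lysis buffer overnight at 37 °C. Optical density was read at 550 nm.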
(In general: Tetrazolium dyes change colour on reduction, which living cells bring about.)

Data set [1] in a line: MTT assay, PhTERT-SEAP (H1299). Format: cell-based, human. Conditions: human, H1299 cells carrying the PhTERT-SEAP reporter, PhTERT-SEAP (H1299); for viability at 1 μM: Conc. 1 μM, read-out: Relative MTT viability (%); for viability at 10 μM: Conc. 10 μM. Put shortly: as §1
[2] abbreviates: read-out: Relative MTT viability (%) (converted).

The term melting point denotes the temperature of the solid-liquid transition. The term viability denotes a read-out of living cells in per cent, often relative to untreated cells. `CC(Cl)C(=O)Nc1c(NC(=O)CCl)ccc2c1C(=O)c1ccccc1C2=O` (stereo not shown) [CC-06, 1-[(2-chloropropanyl)amido]-2-(chloroacetamido)-anthraquinone] displayed a melting point of 175 to 176 °C. Moreover, in the data set with hTERT, the activity at 1 µM turned out to be 12.1 ± 0.44%, the activity at 10 µM was 1.04% and the activity at 100 µM was 2.38%. Further, the “cell toxicity / inhibitory activity compared with mitoxantrone and doxorubicin” value in the data set with H1299 (SEAP and MTT analysis) was “higher cell toxicity activity than mitoxantrone and doxorubicin”. Also, in data set [1], the viability at 1 μM came to 9.01 ± 1.66%.

`O=C(CCl)Nc1ccc2c(c1NC(=O)c1cccc(F)c1)C(=O)c1ccccc1C2=O` [CC-14, 1-(3-fluorobenzamido)-2-(chloroacetamido)-anthraquinone]: the melting point fell in the range of 197 to 198 °C. In the data set on hTERT, the activity at 1 µM stood at 26.9 ± 11.6%, the activity at 10 µM was 1.77% and the activity at 100 µM is 0.97%. Further, in the data set on H1299 (SEAP and MTT analysis), the “cell toxicity / inhibitory activity compared with mitoxantrone and doxorubicin” value was “inhibitory activity even better than mitoxantrone and doxorubicin”. Also, the cell toxicity activity result in the data set with H1299 is “very strong cell toxicity activity”. Besides, the viability at 1 μM in data set [1] amounted to 18.3 ± 13.5%. The viability at 10 μM in data set [1] (setting [2]) is 8.06%.

In turn, `O=C(CCl)Nc1ccc2c(c1NC(=O)c1ccc(F)cc1)C(=O)c1ccccc1C2=O` [CC-15, 1-(4-fluorobenzamido)-2-(chloroacetamido)-anthraquinone] displayed a melting point of 184 to 185 °C. Moreover, in the data set with hTERT, the activity at 1 µM is 11.9 ± 9.77%, the activity at 10 µM is 2.58% and the activity at 100 µM was 0.52%. Further, the “cell toxicity / inhibitory activity compared with mitoxantrone and doxorubicin” value with H1299 (SEAP and MTT analysis) is “inhibitory activity even better than mitoxantrone and doxorubicin”. The cell toxicity activity entry with H1299 was “very strong cell toxicity activity”. For the same compound, the viability at 1 μM in data set [1] is 10.9 ± 2.92%. Further, in data set [1] (setting [2]), the viability at 10 μM is 4.2%.

Compound `O=C(CN1CCN(c2ccccc2)CC1)Nc1ccc2c(c1NC(=O)c1ccccc1)C(=O)c1ccccc1C2=O` [CC-33, 1-(benzamido)-2-[2-(4-phenylpiperazino)acetylamino]-anthraquinone] came in with a melting point of 225 to 226 °C. Moreover, in the data set on hTERT, the activity at 1 µM came to 85.9 ± 8.01%, the activity at 10 µM is 97.9 ± 4.82% and the activity at 100 µM was 89.6 ± 3.37%. Besides, the cell toxicity entry in the data set with H1299 (1 μM, 10 μM, and 100 μM) is listed as “no significant cell toxicity”. The viability at 1 μM in data set [1] was 86.3 ± 2.6%. In addition, the viability at 10 μM in data set [1] (setting [2]) was 110 ± 8.53%. In addition, in data set [1] (Conc. 100 μM, read-out: Relative MTT viability (%) (converted)), the viability at 100 μM was 88 ± 6.32%.

Regarding `Cc1ccc(C(=O)Nc2c(NC(=O)CN3CCN(CCO)CC3)ccc3c2C(=O)c2ccccc2C3=O)cc1` [CC-44, 1-(4-methylbenzamido)-2-[2-(4-(2-hydroxyethyl)piperazino]acetylamino]-anthraquinone], the melting point lay within 210 to 211 °C. For the same compound, in the data set with hTERT, the activity at 1 µM is 77 ± 9.13%, the activity at 10 µM is 8.09% and the activity at 100 µM is -1.24%. For the same compound, the “inhibitory activity among compounds CC-35 to CC-50” value in the data set on H1299 (SEAP and MTT analysis) is given as “higher inhibitory activity”. Moreover, in data set [1], the viability at 1 μM turned out to be 71.5 ± 5.12%. Also, in data set [1] (setting [2]), the viability at 10 μM was 44.8%.
